US20210382058A1, “PATIENT SELECTION FOR TREATMENT OF MYC POSITIVE CANCERS WITH INDENOISOQUINOLINES” (Purdue Research Foundation, priority 2020, published 2021)
Where two headings read alike, the source gives them in different places.

Columns and labels:
NCI-60 cancer cell lines = experiment: NCI-60 cancer cell line drug screen (GI50, MGM); format: cell-based, human; conditions: Homo sapiens; for GI50: read-out: Antiproliferative Activities [GI50 (μM)]
Protocol: Cancer cells were incubated with the test compounds at five concentrations ranging from 100 μM to 10 nM for 48 h. […] The approximate average of GI50 values across the entire panel of NCI-60 cancer cell lines for each compound was recorded as the MGM value.

human topoisomerase I = target: T1, human topoisomerase I (Homo sapiens, UniProt P11387); conditions: relative topoisomerase I inhibition levels, previously determined, six levels (0 - 5, +++++ = 5); cited from earlier work
T1 sequence (P11387 1-765): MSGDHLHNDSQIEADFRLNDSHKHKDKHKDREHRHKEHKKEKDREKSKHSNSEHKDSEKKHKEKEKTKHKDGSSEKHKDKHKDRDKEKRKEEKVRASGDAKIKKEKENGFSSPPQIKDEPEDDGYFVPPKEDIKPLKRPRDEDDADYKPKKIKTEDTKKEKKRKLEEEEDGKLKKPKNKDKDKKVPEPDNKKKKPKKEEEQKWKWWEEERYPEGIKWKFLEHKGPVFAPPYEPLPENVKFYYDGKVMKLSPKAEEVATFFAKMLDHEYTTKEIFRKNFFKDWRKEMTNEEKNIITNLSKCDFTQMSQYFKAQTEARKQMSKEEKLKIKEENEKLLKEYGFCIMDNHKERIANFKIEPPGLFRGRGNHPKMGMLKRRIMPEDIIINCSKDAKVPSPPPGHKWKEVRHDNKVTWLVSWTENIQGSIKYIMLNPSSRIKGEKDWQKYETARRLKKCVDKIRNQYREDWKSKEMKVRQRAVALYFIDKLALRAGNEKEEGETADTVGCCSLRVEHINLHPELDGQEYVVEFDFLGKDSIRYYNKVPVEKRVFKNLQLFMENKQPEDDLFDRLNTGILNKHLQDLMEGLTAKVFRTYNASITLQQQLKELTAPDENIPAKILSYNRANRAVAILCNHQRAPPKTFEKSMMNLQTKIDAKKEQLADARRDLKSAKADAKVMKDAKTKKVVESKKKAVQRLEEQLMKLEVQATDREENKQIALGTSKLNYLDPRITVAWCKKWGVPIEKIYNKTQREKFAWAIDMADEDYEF

COc1cc2c(cc1O)-c1c(c3ccc([N+](=O)[O-])cc3c(=O)n1CCCN1CCOCC1)C2=O [Compound 36]
GI50 (NCI-60 cancer cell lines; 786-0, Renal Cancer, 786-0): 0.21 µM | GI50 (NCI-60 cancer cell lines; A498, Renal Cancer, A498): 0.07 µM | GI50 (NCI-60 cancer cell lines; A549, Non-Small Cell Lung Cancer, A549/ATCC): 0.52 µM | GI50 (NCI-60 cancer cell lines; ACHN, Renal Cancer, ACHN): 0.05 µM | GI50 (NCI-60 cancer cell lines; BT-549, Breast Cancer, BT-549): 0.12 µM | GI50 (NCI-60 cancer cell lines; CAKI-1, Renal Cancer, CAKI-1): 0.12 µM | GI50 (NCI-60 cancer cell lines; CCRF-CEM, Leukemia, CCRF-CEM): 0.05 µM | GI50 (NCI-60 cancer cell lines; COLO 205, Colon Cancer, COLO 205): 7.76 µM | GI50 (NCI-60 cancer cell lines; DU-145, Prostate Cancer, DU-145): 0.14 µM | GI50 (NCI-60 cancer cell lines; HCC 2998, Colon Cancer, HCC-2998): 1.42 µM | GI50 (NCI-60 cancer cell lines; HCT-15, Colon Cancer, HCT-15): 1.53 µM | GI50 (NCI-60 cancer cell lines; HCT-116, Colon Cancer, HCT-116): 0.22 µM | GI50 (NCI-60 cancer cell lines; HL-60, Leukemia, HL-60(TB)): 0.08 µM | GI50 (NCI-60 cancer cell lines; HOP-62, Non-Small Cell Lung Cancer, HOP-62): 0.12 µM | GI50 (NCI-60 cancer cell lines; HOP-92, Non-Small Cell Lung Cancer, HOP-92): 0.28 µM | GI50 (NCI-60 cancer cell lines; HT-29, Colon Cancer, HT29): 1.18 µM | GI50 (NCI-60 cancer cell lines; Hs-578T, Breast Cancer, HS 578T): 1.97 µM | GI50 (NCI-60 cancer cell lines; IGROV-1, Ovarian Cancer, IGROV1): 1.52 µM | GI50 (NCI-60 cancer cell lines; K562, Leukemia, K-562): 0.09 µM | GI50 (NCI-60 cancer cell lines; KM12, Colon Cancer, KM12): 1.04 µM | GI50 (NCI-60 cancer cell lines; LOX IMVI, Melanoma, LOX IMVI): 0.09 µM | GI50 (NCI-60 cancer cell lines; Leukemia, SR): 0.03 µM | GI50 (NCI-60 cancer cell lines; MCF7, Breast Cancer, MCF7): 0.05 µM | GI50 (NCI-60 cancer cell lines; MDA-MB-231, Breast Cancer, MDA-MB-231/ATCC): 2.06 µM | GI50 (NCI-60 cancer cell lines; MDA-MB-435, Melanoma, MDA-MB-435): 0.89 µM | GI50 (NCI-60 cancer cell lines; MDA-MB-468, Breast Cancer, MDA-MB-468): 0.14 µM | GI50 (NCI-60 cancer cell lines; MOLT-4, Leukemia, MOLT-4): 0.03 µM | GI50 (NCI-60 cancer cell lines; Malme-3M, Melanoma, MALME-3M): 1.16 µM | GI50 (NCI-60 cancer cell lines; Melanoma, M14): 0.08 µM | GI50 (NCI-60 cancer cell lines; NCI-H23, Non-Small Cell Lung Cancer, NCI-H23): 0.17 µM | GI50 (NCI-60 cancer cell lines; NCI-H226, Non-Small Cell Lung Cancer, NCI-H226): 0.45 µM | GI50 (NCI-60 cancer cell lines; NCI-H322M, Non-Small Cell Lung Cancer, NCI-H322M): 0.66 µM | GI50 (NCI-60 cancer cell lines; NCI-H460, Non-Small Cell Lung Cancer, NCI-H460): 0.03 µM | GI50 (NCI-60 cancer cell lines; NCI-H522, Non-Small Cell Lung Cancer, NCI-H522): 0.05 µM | GI50 (NCI-60 cancer cell lines; OVCAR-3, Ovarian Cancer, OVCAR-3): 0.57 µM | GI50 (NCI-60 cancer cell lines; OVCAR-4, Ovarian Cancer, OVCAR-4): 1.29 µM | GI50 (NCI-60 cancer cell lines; OVCAR-5, Ovarian Cancer, OVCAR-5): 3.6 µM | GI50 (NCI-60 cancer cell lines; OVCAR-8, Ovarian Cancer, OVCAR-8): 0.45 µM | GI50 (NCI-60 cancer cell lines; Ovarian Cancer, NCl/ADR-RES): 0.28 µM | GI50 (NCI-60 cancer cell lines; Prostate Cancer, PC-3): 0.67 µM | GI50 (NCI-60 cancer cell lines; RPMI-8226, Leukemia, RPMI-8226): 0.12 µM | GI50 (NCI-60 cancer cell lines; RXF 393, Renal Cancer, RXF 393): 0.46 µM | GI50 (NCI-60 cancer cell lines; Renal Cancer, U0-31): 0.07 µM | GI50 (NCI-60 cancer cell lines; SF-268, CNS Cancer, SF-268): 0.04 µM | GI50 (NCI-60 cancer cell lines; SF-295, CNS Cancer, SF-295): 0.18 µM | GI50 (NCI-60 cancer cell lines; SF-539, CNS Cancer, SF-539): 0.27 µM | GI50 (NCI-60 cancer cell lines; SK-MEL-2, Melanoma, SK-MEL-2): 9.44 µM | GI50 (NCI-60 cancer cell lines; SK-MEL-5, Melanoma, SK-MEL-5): 0.22 µM | GI50 (NCI-60 cancer cell lines; SK-MEL-28, Melanoma, SK-MEL-28): 1.37 µM | GI50 (NCI-60 cancer cell lines; SK-OV-3, Ovarian Cancer, SK-OV-3): 0.24 µM | GI50 (NCI-60 cancer cell lines; SN12C, Renal Cancer, SN12C): 0.2 µM | GI50 (NCI-60 cancer cell lines; SNB-19, CNS Cancer, SNB-19): 0.39 µM | GI50 (NCI-60 cancer cell lines; SNB-75, CNS Cancer, SNB-75): 0.21 µM | GI50 (NCI-60 cancer cell lines; SW-620, Colon Cancer, SW-620): 0.08 µM | GI50 (NCI-60 cancer cell lines; T47D, Breast Cancer, T-47D): 0.56 µM | GI50 (NCI-60 cancer cell lines; TK-10, Renal Cancer, TK-10): 2.12 µM | GI50 (NCI-60 cancer cell lines; U-251, CNS Cancer, U251): 0.12 µM | GI50 (NCI-60 cancer cell lines; UACC-62, Melanoma, UACC-62): 0.05 µM | GI50 (NCI-60 cancer cell lines; UACC-257, Melanoma, UACC-257): 0.48 µM | mean GI50 across NCI-60 panel (MGM) (NCI-60 cancer cell lines; average of GI50 values across the entire panel of NCI-60 cancer cell lines): 280 nM | Top1 Inhibiton (human topoisomerase I): ++ (medium inhibition, ++, MYC expression inhibited at 2.0 μM, or no clear dose-dependent MYC inhibition)
